What all share (type): in vivo
For one test, the system named is Echinochloa crus galli. Kind of test: Post-emergence herbicidal action. The note with it: read-out: Herbicidal activity in % against ECHCG; for pest or weed control at 80 g/ha: 80 g of a.i./ha, visual scoring 3-4 weeks after treatment; for pest or weed control at 20 g/ha: 20 g of a.i./ha. The method, then: (§1) Seeds of mono- and dicotyledonous harmful plants are placed in sandy loam in cardboard pots, covered with soil and grown in the greenhouse under good growth conditions. Two to three weeks after sowing, the test plants are treated at the three-leaf stage. The compounds according to the invention, which are formulated as wettable powders or as emulsion concentrates, are sprayed at an application rate of 600 to 800 l of water/ha (converted) in a dosage of 80 grams per hectare onto the surface of the green plant parts. The visual scoring of the damage to the harmful plants is carried out 3-4 weeks after the treatment. Here, the compounds of Nos. 1-39, 1-40, 1-1382 and 1-2091 show an activity of at least 90% against Echinochloa crus galli. The compounds of Nos. 1-3, 1-44 and 1-2091 shown an activity of at least 90% against Abutilon theophrasti. The compounds of Nos. 1-39, 1-40 and 1-1382 show an activity of at least 90% against Veronica persica. The compounds of Nos. 1-3, 1-38, 1-39, 1-1406 and 1-1407 show an activity of at least 90% against Stellaria media.
(§2) The comparative tests of Tables 1 to 24 below show the superiority of the compounds according to the invention over the compounds known from the prior art.
(§3) • ABUTH Abutilon theophrasti ALOMY Alopecurus myosuroides • AMARE Amaranthus retroflexus AVEFA Avena fatua • CHEAL Chenopodium album ECHCG Echinochloa crus galli • GALAP Galium aparine LOLMU Lolium multiflorum • MATIN Matricaria inodora PHBPU Pharbitis purpureum • POLCO Fallopia convolvulus STEME Stellaria media • VERPE Veronica persica VIOTR Viola tricolor • XANST Xanthium strumarium Crop Plants • GLXMA Glycine max (soybeans) TRZAS Triticum aestivum (wheat) • ZEAMX Zea mays (corn)

Test [1] deals with Matricaria inodora. Kind of test: Post-emergence herbicidal action. The note with it: Tripleurospermum inodorum, 80 g of a.i./ha, read-out: Herbicidal activity in % against MATIN. The method, then:
as §1, §2, §3

The next test relates to Pharbitis purpureum. Kind of test: Post-emergence herbicidal action. The note with it: 80 g of a.i./ha. The method, then: as §1, §2, §3
The subject of a further test is Stellaria media. Nature of the test: Post-emergence herbicidal action. The note with it: 80 g of a.i./ha, visual scoring 3-4 weeks after treatment; for pest or weed control at 80 g/ha: Stellaria media, read-out: Herbicidal activity in % against STEME. As to the method:
as §1, §2, §3

In a further test the test system is Viola tricolor. Nature of the test: Post-emergence herbicidal action. The note with it: 80 g of a.i./ha, read-out: Herbicidal activity in % against VIOTR. As to the method:
as §1, §2, §3

The next test relates to Xanthium strumarium. Nature of the test: Post-emergence herbicidal action. The note with it: read-out: Herbicidal activity in % against XANST; for pest or weed control at 80 g/ha: 80 g of a.i./ha; for pest or weed control at 20 g/ha: 20 g of a.i./ha. The method, then:
as §1, §2, §3

Test [2] concerns Abutilon theophrasti. Kind of test: Post-emergence herbicidal action. The note with it: for pest or weed control at 20 g/ha / pest or weed control at 80 g/ha: Abutilon theophrasti, read-out: Herbicidal activity in % against ABUTH; for pest or weed control at 20 g/ha: 20 g of a.i./ha. As to the method: as §1, with “The compounds according to the invention, which are formulated as wettable powders or as emulsion concentrates, are sprayed at an application rate of 600 to 800 l of water/ha (converted) in a dosage of 80 grams per hectare onto the surface of the green plant parts.” left out
as §2, §3

Test [3] has as its system Abutilon theophrasti. Kind of test: Pre-emergence herbicidal action. The note with it: 320 g of a.i./ha, visual scoring 3-4 weeks after treatment.
Description: (§4) Seeds or rhizome pieces of mono- and dicotyledonous harmful plants are placed in sandy loam in pots of a diameter of 9 to 13 cm and covered with soil. The herbicides, formulated as emulsifiable concentrates or dusts, are applied to the surface of the covering soil in the form of aqueous dispersions or suspensions or emulsions at an application rate of 300 to 800 l of water/ha (converted), at a dosage of 320 grams per hectare. For further cultivation of the plants, the pots are then kept in a greenhouse under optimum conditions. The visual scoring of the damage to the harmful plants is carried out 3-4 weeks after the treatment. Here, the compounds of Nos. 1-3, 1-15, 1-44 and 1-1407 show an activity of at least 90% against Echinochloa crus galli. The compounds of Nos. 1-15, 1-45, 1-1407 and 1-1419 show an activity of at least 90% against Abutilon theophrasti. The compounds of Nos. 1-3, 1-45, 1-1406 and 1-1418 show an activity of at least 90% against Amaranthus retroflexus. The compounds of Nos. 1-44, 1-1406, 1-1407 and 1-1419 show an activity of at least 90% against Stellaria media.
as §2, §3

Test [4] concerns Matricaria inodora. Kind of test: Pre-emergence herbicidal action. The note with it: Tripleurospermum inodorum, 320 g of a.i./ha, read-out: Herbicidal activity in % against MATIN.
Description: as §4, §2, §3

A further test relates to Veronica persica. Kind of test: Post-emergence herbicidal action. The note with it: 80 g of a.i./ha, visual scoring 3-4 weeks after treatment, read-out: Herbicidal activity in % against VERPE. As to the method: as §1, §2, §3
The mark [5] stands for this setting: 80 g of a.i./ha, visual scoring 3-4 weeks after treatment.

The results in this text go back to patent publication US7943551B2, “3-cyclopropyl-4-(3-thiobenzoyl) pyrazoles and their use as herbicides” (Bayer Cropscience AG, priority 2007, dated 2011).

Structures are written as SMILES.

Consider `CCSc1c(Cl)ccc(C(=O)c2c(C3CC3)nn(C)c2O)c1C` [drawing 40, reference compound], for which the values for the pest or weed control at 80 g/ha in the test on Echinochloa crus galli, in the test with Matricaria inodora [1] and with Stellaria media were 80%, 40% and 90%, respectively. The “Herbicidal activity in % against PHBPU” value with Pharbitis purpureum was 40%.
Consider `CCSc1c(S(C)(=O)=O)ccc(C(=O)c2c(C3CC3)nn(C)c2O)c1C` [reference compound], for which the pest or weed control at 80 g/ha turned out to be 80% in the test on Echinochloa crus galli, 70% with Viola tricolor and 80% in the test with Xanthium strumarium.
Consider `Cn1nc(C2CC2)c(C(=O)c2ccc(Cl)c(SCC3CC3)c2Cl)c1O`, for which the pest or weed control at 20 g/ha with Xanthium strumarium was determined as 70%; in the test on Abutilon theophrasti [2], 60%.
As for `CSc1c(S(C)(=O)=O)ccc(C(=O)c2c(C3CC3)nn(C)c2O)c1C` [drawing 30, reference compound], the pest or weed control at 80 g/ha with Echinochloa crus galli was determined as 80%; in the test with Viola tricolor, 70%; in the test with Xanthium strumarium, 60%.
`CCSc1c(C(F)(F)F)ccc(C(=O)c2c(C3CC3)nn(C)c2O)c1C`: in the test on Abutilon theophrasti [3], the “Herbicidal activity in % against ABUTH” value was determined as 90%. The pest or weed control at 320 g/ha in the test on Matricaria inodora [4] was 0%.
As for `CCSc1c(Cl)ccc(C(=O)c2c(C3CC3)nn(C)c2O)c1Cl` [reference compound], the pest or weed control at 20 g/ha in the test on Xanthium strumarium was found to be 50%; in the test with Abutilon theophrasti [2], 40%.
Turning to `CSc1c(C(F)(F)F)ccc(C(=O)c2c(C3CC3)nn(C)c2O)c1C` [drawing 46, reference compound], the pest or weed control at 20 g/ha amounted to 60% in the test on Echinochloa crus galli and 70% with Abutilon theophrasti [2].
With `CSc1c(S(C)(=O)=O)ccc(C(=O)c2c(C3CC3)nn(C)c2O)c1Cl` [drawing 52, reference compound], the “Herbicidal activity in % against PHBPU” value in the test on Pharbitis purpureum was 50%. For the same molecule, the pest or weed control at 80 g/ha with Stellaria media and with Veronica persica was 80% each time.
Turning to `COCCSc1c(S(C)(=O)=O)ccc(C(=O)c2c(C3CC3)nn(C)c2O)c1Cl` [drawing 51], the “Herbicidal activity in % against PHBPU” value in the test on Pharbitis purpureum stood at 60%. Moreover, the “Herbicidal activity in % against STEME” value in the test with Stellaria media worked out at 90%. The pest or weed control at 80 g/ha with Veronica persica stood at 100%.
Regarding `COCCSc1c(S(C)(=O)=O)ccc(C(=O)c2c(C3CC3)nn(C)c2O)c1Cl` [No. 1-3, 4-(2-chloro-3-(2-methoxyethyl)thio-4-methylsulfonylbenzoyl)-3-cyclopropyl-5-hydroxy-1-methylpyrazole], the pest or weed control at 80 g/ha with Stellaria media and in the test with Abutilon theophrasti [2] (setting [5]) was at least 90% throughout.
`Cc1c(C(=O)c2c(C3CC3)nn(C)c2O)ccc(S(C)(=O)=O)c1SCC1CC1` [drawing 29]: the pest or weed control at 80 g/ha in the test with Echinochloa crus galli was determined as 100%; in the test with Viola tricolor it was 90%; with Xanthium strumarium it was 90%.
As to `COCCSc1c(C(F)(F)F)ccc(C(=O)c2c(C3CC3)nn(C)c2O)c1C` [No. 1-2091, 3-cyclopropyl-5-hydroxy-4-(3-(2-methoxyethyl)thio-2-methyl-4-trifluoromethylbenzoyl)-1-methylpyrazole], the pest or weed control at 80 g/ha with Echinochloa crus galli and in the test with Abutilon theophrasti [2] (setting [5]) was at least 90% in each case.
Regarding `Cc1c(C(=O)c2c(C3CC3)nn(C)c2O)ccc(S(C)(=O)=O)c1SCC1CC1` [No. 1-38, 3-cyclopropyl-4-(3-cyclopropylmethylthio-2-methyl-4-methylsulfonylbenzoyl)-5-hydroxy-1-methylpyrazole], in the test with Stellaria media, the pest or weed control at 80 g/ha was at least 90%.
As to `COCCSc1c(S(C)(=O)=O)ccc(C(=O)c2c(C3CC3)nn(C)c2O)c1C`, the pest or weed control at 80 g/ha with Echinochloa crus galli, in the test with Viola tricolor and in the test with Xanthium strumarium was 90% each time.
As for `Cc1c(C(=O)c2c(C3CC3)nn(C)c2O)ccc(Cl)c1SCC1CC1` [drawing 39], the pest or weed control at 80 g/ha is 90% in the test on Echinochloa crus galli and 70% with Matricaria inodora [1]. In addition, the “Herbicidal activity in % against PHBPU” value in the test with Pharbitis purpureum is on record as 70%. Further, in the test on Stellaria media, the “Herbicidal activity in % against STEME” value was 100%.
For the molecule `COCCSc1c(Cl)ccc(C(=O)c2c(C3CC3)nn(C)c2O)c1C` [drawing 41], the figures for the pest or weed control at 80 g/ha with Echinochloa crus galli, with Matricaria inodora [1] and in the test with Stellaria media were 90%, 80% and 100%, respectively. Moreover, the “Herbicidal activity in % against PHBPU” value in the test with Pharbitis purpureum is given as 80%.
With `COCCSc1c(S(C)(=O)=O)ccc(C(=O)c2c(C3CC3)nn(C)c2O)c1Cl` [drawing 47], the pest or weed control at 80 g/ha in the test with Matricaria inodora [1] and in the test on Viola tricolor was 70% throughout. Besides, in the test on Abutilon theophrasti [2] (setting [5]), the “Herbicidal activity in % against ABUTH” value worked out at 90%.
With `Cc1c(C(=O)c2c(C3CC3)nn(C)c2O)ccc(Cl)c1SCC1CC1` [No. 1-1406, 4-(4-chloro-3′-cyclopropylmethylthio-2-methylbenzoyl)-3-cyclopropyl-5-hydroxy-1-methylpyrazole], the pest or weed control at 80 g/ha with Stellaria media is at least 90%.
Regarding `COCCSc1c(C(F)(F)F)ccc(C(=O)c2c(C3CC3)nn(C)c2O)c1C` [drawing 19], the “Herbicidal activity in % against ABUTH” value in the test on Abutilon theophrasti [3] is 100%. Also, the pest or weed control at 320 g/ha in the test on Matricaria inodora [4] is 60%.
Taken in the same sequence, the figures for `CSc1c(C(F)(F)F)ccc(C(=O)c2c(C3CC3)nn(C)c2O)c1C` [drawing 20] were 50% and 0%.
As for `CSc1c(S(C)(=O)=O)ccc(C(=O)c2c(C3CC3)nn(C)c2O)c1Cl` [drawing 50, reference compound], the pest or weed control at 80 g/ha was 30% in the test on Matricaria inodora [1], 60% in the test on Viola tricolor and 80% with Abutilon theophrasti [2] (setting [5]).
For `COCCSc1c(C(F)(F)F)ccc(C(=O)c2c(C3CC3)nn(C)c2O)c1C` [drawing 45], the pest or weed control at 20 g/ha in the test on Echinochloa crus galli and in the test on Abutilon theophrasti [2] was 80% each time.
For `CCSc1c(S(C)(=O)=O)ccc(C(=O)c2c(C3CC3)nn(C)c2O)c1Cl` [drawing 48, reference compound], the pest or weed control at 80 g/ha amounted to 0% in the test on Matricaria inodora [1], 60% in the test on Viola tricolor and 80% in the test on Abutilon theophrasti [2] (setting [5]).
